Where a name gives a salt, the structure may show the parent alone.
Structure (SMILES)	melting point
CCOC(=O)c1cc(-c2csc(CS(C)(=O)=O)n2)c(=O)[nH]c1C [Example 43, Ethyl 5-(2-{[(methyl)sulfonyl]methyl}(1,3-thiazol-4-yl))-2-methyl-6-oxo-1,6-dihydro-3-pyridinecarboxylate]	230 °C (dec.)
COc1ccc(CNC(=O)c2cc(-c3csc(-c4ccnc(NCc5ccc(OC)cc5)c4)n3)c(=O)[nH]c2C)cc1 (as salt: HCl) [Example 63, 5-{2-[2-(4-Methoxy-benzyamino)-pyridin-4-yl]-thiazol-4-yl}-2-methyl-6-oxo-1,6-dihydropyridine-3-carboxylic acid 4-methoxy-benzylamide]	280 °C (dec.)
CC(=O)NCCNc1cc(-c2nc(-c3ccc(C)[nH]c3=O)cs2)ccn1 [Example 59, N-(2-{4-[4-(6-Methyl-2-oxo-1,6-dihydropyridin-3-yl)-thiazol-2-yl]-pyridin-2-ylamino}-ethyl)-acetamide]	230 °C (dec.)
CCOC(=O)c1cc(-c2csc(-c3ccnc(NCC4CCCC4)c3)n2)c(=O)[nH]c1C (as salt: HCl) [Example 62, Ethyl 5-{2-[2-(Cyclopentyl)methylamino-pyridin-4-yl]-thiazol-4-yl}-2-methyl-6-oxo-1,6-dihydro-3-pyridinecarboxylate]	260 °C (dec.)
CCOC(=O)c1cc(-c2csc(-c3ccnc(NCC(C)C)c3)n2)c(=O)[nH]c1C [Example 46, Ethyl 2-methyl-5-(2-(2-((2-methylpropyl)amino)-4-pyridinyl)-1,3-thiazol-4-yl)-6-oxo-1,6-dihydro-3-pyridinecarboxylate]	260 °C (dec.)
CCOC(=O)c1cc(-c2csc(-c3ccnc(NCCOc4ccccc4)c3)n2)c(=O)[nH]c1C [Example 91, Ethyl 2-methyl-6-oxo-5-(2-(2-((2-(phenyloxy)ethyl)amino)-4-pyridinyl)-1,3-thiazol-4-yl)-1,6-dihydro-3-pyridinecarboxylate]	270 °C (dec.)
CCOC(=O)c1cc(-c2csc(N(C)S(=O)(=O)c3ccccc3)n2)c(=O)[nH]c1C (as salt: salt) [Example 68, Ethyl 2-methyl-5-{2-[methyl(phenylsulfonyl)amino](1,3-thiazol-4-yl)}-6-oxo-1,6-dihydro-3-pyridinecarboxylate]	231 to 234 °C
CCOC(=O)c1cc(-c2csc(-c3ccc4c(c3)OCO4)n2)c(=O)[nH]c1C [Example 32, Ethyl 5-(2-(2H-benzo[d]1,3-dioxolan-5-yl)(1,3-thiazol-4-yl))-2-m thyl-6-oxo-1,6-dihydro-3-pyridinecarboxylate]	230 °C (dec.)
CCOC(=O)c1cc(-c2csc(-c3ccnc(N4CCCCC4)c3)n2)c(=O)[nH]c1C [Example 45, Ethyl 2-methyl-6-oxo-5-(2-(2-(1-piperidinyl)-4-pyridinyl)-1,3-thiazol-4-yl)-1,6-dihydro-3-pyridinecarboxylate]	260 °C (dec.)
CCOC(=O)c1cc(-c2csc(CS(=O)(=O)Cc3ccc(F)cc3)n2)c(=O)[nH]c1C [Example 26, Ethyl 5-[2-({[(4-fluorophenyl)methyl]sulfonyl}mthyl)(1,3-thiazol-4-yl)]-2-methyl-6-oxo-1,6-dihydro-3-pyridinecarboxylate]	300 °C (dec.)
CCOC(=O)c1cc(-c2csc(-c3ccsc3)n2)c(=O)[nH]c1C [Example 31, Ethyl 2-methyl-6-oxo-5-{2-[3-thienyl](1,3-thiazol-4-yl)}-1,6-dihydro-3-pyridinecarboxylate]	230 °C (dec.)
CCOC(=O)c1cc(-c2csc(-c3ccnc(NCCN(CC)CC)c3)n2)c(=O)[nH]c1C [Example 52, Ethyl 5-(2-(2-((2-(diethylamino)ethyl)amino)-4-pyridinyl)-1,3-thiazol-4-yl)-2-methyl-6-oxo-1,6-dihydro-3-pyridinecarboxylate]	250 °C (dec.)
CCOC(=O)c1cc(-c2csc(CS(=O)(=O)Cc3ccco3)n2)c(=O)[nH]c1C [Example 37, Ethyl 5-(2-{[(2-furylmethyl)sulfonyl]methyl}(1,3-thiazol-4-yl))-2-methyl-6-oxo-1,6-dihydro-3-pyridinecarboxylate]	290 °C (dec.)
CCOC(=O)c1cc(-c2csc(-c3ccnc(NCc4ccc(F)cc4)c3)n2)c(=O)[nH]c1C (as salt: HCl) [Example 55, Ethyl 5-{2-[2-(4-fluoro-benzylamino)-pyridin-4-yl]-thiazol-4-yl}-2-methyl-6-oxo-1,6-dihydro-3-pyridinecarboxylate]	280 °C (dec.)
CCOC(=O)c1cc(-c2csc(CS(=O)(=O)c3ccc(Cl)cc3)n2)c(=O)[nH]c1C [Example 25]	300 °C (dec.)
CCOC(=O)c1cc(-c2csc(-c3ccc(F)cc3)n2)c(=O)[nH]c1C [Example 34, Ethyl 2-methyl-6-oxo-5-{2-[4-fluorophenyl](1,3-thiazol-4-yl)}-1,6-dihydro-3-pyridinecarboxylate]	260 °C (dec.)
COCc1ccc(-c2csc(-c3ccncc3)n2)c(=O)[nH]1 [Example 70, 6-(Methoxymethyl)-3-(2-(4-pyridinyl)-1,3-thiazol-4-yl)-2(1H)-pyridinone]	249 to 254 °C
CCOC(=O)c1cc(-c2csc(-c3ccnc(NCc4ccc(OC)cc4)c3)n2)c(=O)[nH]c1C [Example 64, Ehtyl 5-{2-[2-(4-Methoxy-benzyamino)-pyridin-4-yl]-thiazol-4-yl}-2-methyl-6-oxo-1,6-dihydro-3-pyridinecarboxylate]	> 260 °C
Cc1[nH]c(=O)c(-c2csc(-c3ccnc(NCC4CC4)c3)n2)cc1C(=O)NCC1CC1 (as salt: HCl) [Example 60, N-(Cyclopropylmethyl)-5-(2-(2-((cyclopropylmethyl)amino)-4-pyridinyl)-1,3-thiazol-4-yl)-2-methyl-6-oxo-1,6-dihydro-3-pyridinecarboxamide]	> 260 °C
CCOC(=O)c1cc(-c2csc(-c3ccc(OC)cc3)n2)c(=O)[nH]c1C [Example 41, Ethyl 2-methyl-6-oxo-5-{2-[4-methoxyphenyl](1,3-thiazol-4-yl)}-1,6-dihydro-3-pyridinecarboxylate]	240 °C (dec.)

Next, values leading:

melting point	Structure (SMILES)
260 °C (dec.)	CCOC(=O)c1cc(-c2csc(-c3ccnc(NCc4ccco4)c3)n2)c(=O)[nH]c1C (as salt: HCl) [Example 53, Ethyl 5-(2-(2-[(fur-2-ylmethyl)-amino]-pyridin-4-yl}-thiazol-4-yl)-2-methyl-6-oxo-1,6-dihydro-3-pyridinecarboxylate]
243 to 245 °C	O=c1[nH]cc(Oc2ccccc2)cc1-c1csc(-c2ccncc2)n1 (as salt: salt) [Example 71, 5-Phenoxy-3-(2-(4-pyridinyl)-1,3-thiazol-4-yl)-2(1H)-pyridinone]
> 260 °C	Cc1[nH]c(=O)c(-c2csc(-c3ccnc(NCc4ccccn4)c3)n2)cc1C(=O)NCc1ccccn1 [Example 88, 2-Methyl-6-oxo-N-(2-pyridinylmethyl)-5-(2-(2-((2-pyridinylmethyl)amino)-4-pyridinyl)-1,3-thiazol-4-yl)-1,6-dihydro-3-pyridinecarboxamide]
230 °C (dec.)	CCOC(=O)c1cc(-c2csc(-c3cccs3)n2)c(=O)[nH]c1C [Example 27]
290 °C (dec.)	CCOC(=O)c1cc(-c2csc(-c3c(Cl)cncc3Cl)n2)c(=O)[nH]c1C [Example 42, Ethyl 5-[2-(3,5-dichloro-pyridyl-4-yl)-thiazol-4-yl]-2-methyl-6-oxo-1,6-dihydro-3-pyridinecarboxylate]
250 °C (dec.)	CCOC(=O)c1cc(-c2csc(CS(=O)(=O)C(C)(C)C)n2)c(=O)[nH]c1C [Example 38, Ethyl 5-(2-{[(tert-butyl)sulfonyl]methyl}(1,3-thiazol-4-yl))-2-methyl-6-oxo-1,6-dihydro-3-pyridinecarboxylate]
270 °C (dec.)	CCOC(=O)c1cc(-c2csc(-c3ccnc(NC)c3)n2)c(=O)[nH]c1C [Example 83, Ethyl 2-methyl-5-(2-(2-(methylamino)-4-pyridinyl)-1,3-thiazol-4-yl)-6-oxo-1,6-dihydro-3-pyridinecarboxylate]
260 °C (dec.)	CCOC(=O)c1cc(-c2csc(CSc3ccccc3)n2)c(=O)[nH]c1C [Example 28, Ethyl 2-methyl-6-oxo-5-{2-(phenylthiomethyl)(1,3-thiazol-4-yl)}-1,6-dihydro-3-pyridinecarboxylate]
> 230 °C	CCOC(=O)c1cc(-c2csc(-c3ccnc(NC)c3)n2)c(=O)[nH]c1C(C)C (as salt: HCl) [Example 94, Ethyl 5-[2-(methylamino-pyridin-4-yl)-thiazol-4-yl]-2-isopropyl-6-oxo-1,6-dihydro-3-pyridinecarboxylate]
250 °C (dec.)	CCOC(=O)c1cc(-c2csc(CCn3cccc(C(F)(F)F)c3=O)n2)c(=O)[nH]c1C [Example 51, Ethyl 2-methyl-6-oxo-5-(2-(2-(2-oxo-3-(trifluoromethyl)-1(2H)-pyridinyl)ethyl)-1,3-thiazol-4-yl)-1,6-dihydro-3-pyridinecarboxylate]
300 °C (dec.)	CCOC(=O)c1cc(-c2csc(-c3sccc3CS(=O)(=O)c3ccc(Cl)cc3)n2)c(=O)[nH]c1C [Example 44]
> 230 °C	CCOC(=O)c1cc(-c2csc(-c3ccnc(N(C)C)c3)n2)c(=O)[nH]c1C(C)C (as salt: hydrochloride) [Example 93, Ethyl 5-[2-(dimethylamino-pyridin-4-yl)-thiazol-4-yl]-2-isopropyl-6-oxo-1,6-dihydro-3-pyridinecarboxylate]
270 °C (dec.)	CCOC(=O)c1cc(-c2csc(-c3ccnc(NCC(N)=O)c3)n2)c(=O)[nH]c1C (as salt: HCl) [Example 57, Ethyl 5-{2-[2-(carbamoylmethyl-amino)-pyridin-4-yl]-thiazol-4-yl}-2-methyl-6-oxo-1,6-dihydro-3-pyridinecarboxylate]
270 °C (dec.)	CCOC(=O)c1cc(-c2csc(-c3ccnc(NCc4ccccn4)c3)n2)c(=O)[nH]c1C [Example 90, Ethyl 2-methyl-6-oxo-5-(2-(2-((2-pyridinylmethyl)amino)-4-pyridinyl)-1,3-thiazol-4-yl)-1,6-dihydro-3-pyridinecarboxylate]
195 °C (dec.)	CCOC(=O)c1cc(-c2csc(-c3csc(C)n3)n2)c(=O)[nH]c1C [Example 36]
